ChEMBL document CHEMBL4828714, “Mutasynthesis of Antibacterial Halogenated Actinomycin Analogues” (J Nat Prod, 2021)
≈ marks a conversion by molar mass, not a printed value. Numbered stars: 1 amine (or outer) side, 2 acyl side, 3 side chain; on linkers, the order of the positions; unused ones are H or OH. Bridge positions count the residues as written; N and C are the ends. Square brackets hold non-standard residues; d marks the D form. Peptide text beside a SMILES is read from it. I, II: the chains in the order shown. Actinocin(1to9) = Cc1c2oc3c(C)ccc(C(=O)[*:2])c3nc-2c(C(=O)[*:1])c(N)c1=O; NMeV = CN[C@H](C(=O)O)C(C)C; Sar = CNCC(=O)O

Legend:
[1] = test system: MCF7; assay: Cytotoxicity against human MCF7 cells assessed as growth inhibition incubated for 68 hrs by MTT assay; assay type: functional, cell-based; conditions: MCF7, 68 h
[2] = test system: Bacillus thuringiensis; assay: Antimicrobial activity against Bacillus thuringiensis BT01 assessed as inhibition of bacterial growth incubated for 16 to 18 hrs by broth micro dilution technique; assay type: functional; conditions: time 16-18 hrs
[3] = test system: Staphylococcus aureus; assay: Antimicrobial activity against Staphylococcus aureus Sau 718306 assessed as inhibition of bacterial growth incubated for 16 to 18 hrs by broth micro dilution technique; assay type: functional; conditions: time 16-18 hrs
[4] = test system: Staphylococcus aureus; assay: Antimicrobial activity against Staphylococcus aureus CCAM 3090 assessed as inhibition of bacterial growth incubated for 16 to 18 hrs by broth micro dilution technique; assay type: functional; conditions: time 16-18 hrs
[5] = test system: RKO; assay: Cytotoxicity against human RKO cells assessed as growth inhibition incubated for 68 hrs by MTT assay; assay type: functional, cell-based
[6] = test system: Staphylococcus aureus; assay: Antimicrobial activity against Staphylococcus aureus ATCC 29213 assessed as inhibition of bacterial growth incubated for 16 to 18 hrs by broth micro dilution technique; assay type: functional; conditions: time 16-18 hrs
[7] = test system: Staphylococcus aureus; assay: Antimicrobial activity against Staphylococcus aureus Sau 6917 assessed as inhibition of bacterial growth incubated for 16 to 18 hrs by broth micro dilution technique; assay type: functional; conditions: time 16-18 hrs
[8] = test system: Staphylococcus aureus; assay: Antimicrobial activity against Staphylococcus aureus Sau 1862 assessed as inhibition of bacterial growth incubated for 16 to 18 hrs by broth micro dilution technique; assay type: functional; conditions: time 16-18 hrs
[9] = test system: HepG2; assay: Cytotoxicity against human HepG2 cells assessed as growth inhibition incubated for 68 hrs by MTT assay; assay type: functional, cell-based; conditions: HepG2, 68 h
[10] = test system: HeLa; assay: Cytotoxicity against human HeLa cells assessed as growth inhibition incubated for 68 hrs by MTT assay; assay type: functional, cell-based
[11] = test system: Staphylococcus aureus; assay: Antimicrobial activity against Staphylococcus aureus Sau 991 assessed as inhibition of bacterial growth incubated for 16 to 18 hrs by broth micro dilution technique; assay type: functional; conditions: time 16-18 hrs
[12] = test system: L02; assay: Cytotoxicity against human L02 cells assessed as growth inhibition incubated for 68 hrs by MTT assay; assay type: cell-based; conditions: L02, 68 h
[13] = test system: Enterococcus faecalis; assay: Antimicrobial activity against Enterococcus faecalis ATCC 29212 assessed as inhibition of bacterial growth incubated for 16 to 18 hrs by broth micro dilution technique; assay type: functional; conditions: time 16-18 hrs
[14] = test system: HL-60; assay: Cytotoxicity against human HL-60 cells assessed as growth inhibition incubated for 68 hrs by MTT assay; assay type: functional, cell-based; conditions: HL-60, 68 h
[15] = test system: Staphylococcus aureus; assay: Antimicrobial activity against Staphylococcus aureus Sau 16162 assessed as inhibition of bacterial growth incubated for 16 to 18 hrs by broth micro dilution technique; assay type: functional; conditions: time 16-18 hrs
[16] = test system: Micrococcus luteus; assay: Antimicrobial activity against Micrococcus luteus ML01 assessed as inhibition of bacterial growth incubated for 16 to 18 hrs by broth micro dilution technique; assay type: functional; conditions: time 16-18 hrs
[17] = test system: Enterococcus faecium; assay: Antimicrobial activity against Enterococcus faecium ATCC 35682 assessed as inhibition of bacterial growth incubated for 16 to 18 hrs by broth micro dilution technique; assay type: functional; conditions: time 16-18 hrs
[18] = test system: Staphylococcus aureus; assay: Antimicrobial activity against Staphylococcus aureus Sau 745524 assessed as inhibition of bacterial growth incubated for 16 to 18 hrs by broth micro dilution technique; assay type: functional; conditions: time 16-18 hrs
[19] = test system: BEAS-2B; assay: Cytotoxicity against human BEAS-2B cells assessed as growth inhibition incubated for 68 hrs by MTT assay; assay type: cell-based
[20] = test system: A549; assay: Cytotoxicity against human A549 cells assessed as growth inhibition incubated for 68 hrs by MTT assay; assay type: functional, cell-based; conditions: A549, 68 h
[21] = test system: Candida albicans; assay: Antimicrobial activity against Candida albicans assessed as inhibition of bacterial growth incubated for 16 to 18 hrs by broth micro dilution technique; assay type: functional; conditions: time 16-18 hrs

## CC(C)[C@H]1C(=O)O[C@H](C)[C@H](NC(=O)c2c3nc4c(C(=O)N[C@@H]5C(=O)N[C@H](C(C)C)C(=O)N6CCC[C@H]6C(=O)N(C)CC(=O)N(C)[C@@H](C(C)C)C(=O)O[C@@H]5C)ccc(I)c4oc-3c(I)c(=O)c2N)C(=O)N[C@H](C(C)C)C(=O)N2CCC[C@H]2C(=O)N(C)CC(=O)N1C
[1]
  IC50: 1100 nM
[2]
  MIC: 0.13 µg/mL (≈ 0.0879 µM)
[3]
  MIC: 2 µg/mL (≈ 1.35 µM)
[4]
  MIC: 4 µg/mL (≈ 2.7 µM)
[5]
  IC50: 200 nM
[6]
  MIC: 4 µg/mL (≈ 2.7 µM)
[7]
  MIC: 4 µg/mL (≈ 2.7 µM)
[8]
  MIC: 2 µg/mL (≈ 1.35 µM)
[9]
  IC50: 100 nM
[10]
  IC50: 200 nM
[11]
  MIC: 2 µg/mL (≈ 1.35 µM)
[12]
  IC50: 1500 nM
[13]
  MIC: 2 µg/mL (≈ 1.35 µM)
[14]
  IC50: 50 nM
[15]
  MIC: 4 µg/mL (≈ 2.7 µM)
[16]
  MIC: < 0.06 µg/mL
[17]
  MIC: 0.06 µg/mL (≈ 0.0406 µM)
[18]
  MIC: 2 µg/mL (≈ 1.35 µM)
[19]
  IC50: 500 nM
[20]
  IC50: 5000 nM
[21]
  MIC: 0.13 µg/mL (≈ 0.0879 µM)

## CC(C)[C@H]1C(=O)O[C@H](C)[C@H](NC(=O)c2c3nc4c(C(=O)N[C@@H]5C(=O)N[C@H](C(C)C)C(=O)N6CCC[C@H]6C(=O)N(C)CC(=O)N(C)[C@@H](C(C)C)C(=O)O[C@@H]5C)ccc(Br)c4oc-3c(Br)c(=O)c2N)C(=O)N[C@H](C(C)C)C(=O)N2CCC[C@H]2C(=O)N(C)CC(=O)N1C
[1]
  IC50: 1500 nM
[2]
  MIC: 0.25 µg/mL (≈ 0.18 µM)
[3]
  MIC: 8 µg/mL (≈ 5.78 µM)
[4]
  MIC: 8 µg/mL (≈ 5.78 µM)
[5]
  IC50: 1500 nM
[6]
  MIC: 8 µg/mL (≈ 5.78 µM)
[7]
  MIC: 16 µg/mL (≈ 11.6 µM)
[8]
  MIC: 8 µg/mL (≈ 5.78 µM)
[9]
  IC50: 2400 nM
[10]
  IC50: 6200 nM
[11]
  MIC: 8 µg/mL (≈ 5.78 µM)
[12]
  IC50: 17600 nM
[13]
  MIC: 16 µg/mL (≈ 11.6 µM)
[14]
  IC50: 40 nM
[15]
  MIC: 16 µg/mL (≈ 11.6 µM)
[16]
  MIC: < 0.06 µg/mL
[17]
  MIC: 0.13 µg/mL (≈ 0.0939 µM)
[18]
  MIC: 8 µg/mL (≈ 5.78 µM)
[19]
  IC50: 2200 nM
[20]
  IC50: 1100 nM
[21]
  MIC: 16 µg/mL (≈ 11.6 µM)

## Cc1c2oc3c(C)ccc(C(=O)N[C@@H]4C(=O)N[C@H](C(C)C)C(=O)N5CCC[C@H]5C(=O)N(C)CC(=O)N(C)[C@@H](C(C)C)C(=O)O[C@@H]4C)c3nc-2c(C(=O)N[C@@H]2C(=O)N[C@H](C(C)C)C(=O)N3CCC[C@H]3C(=O)N(C)CC(=O)N(C)[C@@H](C(C)C)C(=O)O[C@@H]2C)c(N)c1=O [DACTINOMYCIN] (I: T[dV]P[Sar][NMeV] / II: T[dV]P[Sar][NMeV]; ester I:1-I:C, II:1-II:C; linker I:N-II:N via Actinocin(1to9))
[1]
  IC50: 200 nM
[2]
  MIC: 0.06 µg/mL (≈ 0.0478 µM)
[3]
  MIC: 0.06 µg/mL (≈ 0.0478 µM)
[4]
  MIC: 0.06 µg/mL (≈ 0.0478 µM)
[5]
  IC50: 30 nM
[6]
  MIC: 0.06 µg/mL (≈ 0.0478 µM)
[7]
  MIC: 0.06 µg/mL (≈ 0.0478 µM)
[8]
  MIC: 0.06 µg/mL (≈ 0.0478 µM)
[9]
  IC50: 10 nM
[10]
  IC50: 120 nM
[11]
  MIC: 0.06 µg/mL (≈ 0.0478 µM)
[12]
  IC50: 500 nM
[13]
  MIC: < 0.06 µg/mL
[14]
  IC50: 20 nM
[15]
  MIC: 1 µg/mL (≈ 0.797 µM)
[16]
  MIC: < 0.06 µg/mL
[17]
  MIC: 0.13 µg/mL (≈ 0.104 µM)
[18]
  MIC: 0.06 µg/mL (≈ 0.0478 µM)
[19]
  IC50: 700 nM
[20]
  IC50: 3800 nM
[21]
  MIC: < 0.06 µg/mL

## CC(C)[C@H]1C(=O)O[C@H](C)[C@H](NC(=O)c2c3nc4c(C(=O)N[C@@H]5C(=O)N[C@H](C(C)C)C(=O)N6CCC[C@H]6C(=O)N(C)CC(=O)N(C)[C@@H](C(C)C)C(=O)O[C@@H]5C)ccc(Br)c4oc-3c(Br)c(=O)c2N)C(=O)N[C@H](C(C)C)C(=O)N2C[C@@H](O)C[C@H]2C(=O)N(C)CC(=O)N1C
[1]
  IC50: 2900 nM
[2]
  MIC: 2 µg/mL (≈ 1.43 µM)
[3]
  MIC: 16 µg/mL (≈ 11.4 µM)
[4]
  MIC: 16 µg/mL (≈ 11.4 µM)
[5]
  IC50: 1300 nM
[6]
  MIC: 16 µg/mL (≈ 11.4 µM)
[7]
  MIC: 32 µg/mL (≈ 22.8 µM)
[8]
  MIC: 16 µg/mL (≈ 11.4 µM)
[9]
  IC50: 3000 nM
[10]
  IC50: 2400 nM
[11]
  MIC: 16 µg/mL (≈ 11.4 µM)
[12]
  IC50: 3100 nM
[13]
  MIC: 32 µg/mL (≈ 22.8 µM)
[14]
  IC50: 200 nM
[15]
  MIC: 16 µg/mL (≈ 11.4 µM)
[16]
  MIC: 0.5 µg/mL (≈ 0.357 µM)
[17]
  MIC: 2 µg/mL (≈ 1.43 µM)
[18]
  MIC: 16 µg/mL (≈ 11.4 µM)
[19]
  IC50: 900 nM
[20]
  IC50: 53700 nM
[21]
  MIC: 8 µg/mL (≈ 5.71 µM)

## CC(C)[C@H]1C(=O)O[C@H](C)[C@H](NC(=O)c2c3nc4c(C(=O)N[C@@H]5C(=O)N[C@H](C(C)C)C(=O)N6CCC[C@H]6C(=O)N(C)CC(=O)N(C)[C@@H](C(C)C)C(=O)O[C@@H]5C)ccc(Cl)c4oc-3c(Cl)c(=O)c2N)C(=O)N[C@H](C(C)C)C(=O)N2CCC[C@H]2C(=O)N(C)CC(=O)N1C
[1]
  IC50: 17300 nM
[2]
  MIC: 0.5 µg/mL (≈ 0.386 µM)
[3]
  MIC: 16 µg/mL (≈ 12.3 µM)
[4]
  MIC: 32 µg/mL (≈ 24.7 µM)
[5]
  IC50: 11100 nM
[6]
  MIC: 32 µg/mL (≈ 24.7 µM)
[7]
  MIC: 32 µg/mL (≈ 24.7 µM)
[8]
  MIC: 16 µg/mL (≈ 12.3 µM)
[9]
  IC50: 2800 nM
[10]
  IC50: 51000 nM
[11]
  MIC: 16 µg/mL (≈ 12.3 µM)
[12]
  IC50: 4600 nM
[13]
  MIC: 16 µg/mL (≈ 12.3 µM)
[14]
  IC50: 200 nM
[15]
  MIC: 16 µg/mL (≈ 12.3 µM)
[16]
  MIC: 0.06 µg/mL (≈ 0.0463 µM)
[17]
  MIC: 0.13 µg/mL (≈ 0.1 µM)
[18]
  MIC: 16 µg/mL (≈ 12.3 µM)
[19]
  IC50: 1000 nM
[20]
  IC50: 4500 nM
[21]
  MIC: 16 µg/mL (≈ 12.3 µM)
